Data taken from patent publication US12208092B2, “Compositions and methods for administering paltusotine to patients with hepatic impairment” (CRINETICS PHARMACEUTICALS, INC., priority 2023, dated 2025).
In brackets after ≈: the same amount, converted by molar mass. Where two headings read alike, the source gives them in different places.

Assays:
[1] = Phase 1 hepatic impairment study, plasma PK after single oral 20 mg tablet; type: in vivo, human; settings: for AUC(0-t) / AUC(0-inf) / Cmax / MRT inf / Vd/F / half-life / Tmax: both sexes, human, plasma, oral, 20 mg; for AUC(0-inf): read-out: AUC(0-inf), Mean ± SD; for Cmax: read-out: Cmax, Mean ± SD; for MRT inf: read-out: MRT(0-inf), Median (min, max); for Vd/F: read-out: VZ/F, Mean ± SD; for half-life: read-out: t1/2, Mean ± SD (converted); for Tmax: read-out: tmax, Median (min, max); for AUC(0-inf) Geometric Mean Ratio (90% CI), sensitivity analysis / AUC(0-t) Geometric Mean Ratio (90% CI), sensitivity analysis / Cmax Geometric Mean Ratio (90% CI), sensitivity analysis: matched pairs MMRM with age and BMI
Text: Overall, 36 male and female subjects were enrolled, including 14 subjects with normal hepatic function, 8 subjects with mild stable hepatic impairment (Group 1), 8 subjects with moderate stable hepatic impairment (Group 2), and 6 subjects with severe stable hepatic impairment (Group 3). Healthy subjects with normal hepatic function (Group 4) were matched with hepatically impaired subjects according to sex, age (±10 years), and BMI (±20%). A reasonable attempt was made to match healthy subjects with hepatically impaired subjects in terms of race. Healthy subjects may have matched to more than 1 subject in different hepatic impairment groups but not more than 1 subject within each hepatic impairment group. Healthy subjects were recruited into the study after a sufficient number of hepatically impaired subjects were enrolled in Groups 1, 2, and 3.
The Child-Pugh scale was used to categorize the degree of hepatic impairment for assignment into the mild (score of 5-6), moderate (score of 7-9), and severe hepatic impairment (score of 10-15) groups.
The study included a screening period (Days −28 to −2), check-in (Day −1), and a treatment period (Days 1 to 7). On Day 1, all subjects received a single oral dose of 20 mg of paltusotine (1×20 mg tablet) administered with 240 mL of room temperature water following an overnight fast (nothing to eat or drink except water) of at least 10 hours. Subjects remained fasted and upright (seated or standing) for 4 hours after dosing. Water was permitted as desired except for the period 1 hour before and 1 hour after administration of study drug. Subjects received standardized meals that were scheduled at the same time daily during the study.
Serial blood samples for PK analysis of paltusotine were collected before dosing (0 hour) and up to 144 hours after administration of paltusotine.
Blood samples for analysis of paltusotine concentrations in plasma were collected at the following time points: before dosing (0 hour) and at 0.25, 0.5, 0.75, 1, 1.25, 1.5, 2, 3, 4, 6, 8, 10, 12, 24, 48, 72, 96, 120, and 144 hours after administration of paltusotine.
Pharmacokinetic samples were analyzed using a validated liquid chromatography coupled with tandem mass spectrometry assay for paltusotine in human plasma.
Plasma concentration-time data was analyzed by non-compartmental analysis using Phoenix® WinNonlin® Version 8.3 (Certara USA, Inc., Princeton, NJ).

plasma GH = test: suppression of plasma GH after rGHRH challenge in rat; type: in vivo
Protocol: The in vivo pharmacological efficacy of paltusotine has been examined in rat and dog. In the rat, acute efficacy was evaluated by examining the suppression of plasma GH in response to a challenge with rat growth hormone releasing hormone (rGHRH). […] The effects of chronic, oral, 14-day administration of paltusotine were evaluated by measuring the sustained suppression of IGF-1 in the rat.

[2] = plasma exposure in 14-day rat study; type: in vivo; settings: 10 mg/kg/day oral
[3] = system: other human somatostatin receptors
[4] = system: human liver microsomes and recombinant CYP450s; test: CYP phenotyping, in vitro metabolism; type: in vitro ADME
[5] = SAD/MAD oral administration in healthy adult male subjects; type: in vivo, human; settings: 1.25 to 20 mg (SAD) and 5 to 30 mg (MAD)
Protocol: A dose of 20 mg paltusotine was chosen for the oral dose in the ADME study as a possible therapeutic dose estimated by PD activities of suppression of growth hormone releasing hormone (GHRH) stimulated GH secretion.

IGF-1 = test: suppression of IGF-1 in Beagle dogs, 7 days oral; type: in vivo
[6] = biological target: human somatostatin receptor 2 (SST2) (Homo sapiens, UniProt P30874); settings: read-out: EC50, inhibition of cAMP accumulation via SST2 activation; average, in vitro
Chain of human somatostatin receptor 2 (SST2) (P30874 whole entry): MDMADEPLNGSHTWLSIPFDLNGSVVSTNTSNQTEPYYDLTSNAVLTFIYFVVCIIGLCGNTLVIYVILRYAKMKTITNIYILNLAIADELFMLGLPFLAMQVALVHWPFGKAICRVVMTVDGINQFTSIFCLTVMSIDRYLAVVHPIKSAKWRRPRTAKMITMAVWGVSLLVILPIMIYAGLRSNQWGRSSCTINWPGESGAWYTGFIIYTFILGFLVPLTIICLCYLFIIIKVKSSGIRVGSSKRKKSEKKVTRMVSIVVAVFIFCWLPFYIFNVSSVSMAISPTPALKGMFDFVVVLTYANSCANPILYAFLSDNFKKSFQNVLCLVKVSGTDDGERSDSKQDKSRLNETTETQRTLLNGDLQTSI

Question: For `N#Cc1cccc(-c2ccc3ncc(-c4cc(F)cc(F)c4)c(N4CCC(N)CC4)c3c2)c1O` [paltusotine, 3-[4-(4-amino-1-piperidyl)-3-(3,5-difluorophenyl)-6-quinolyl]-2-hydroxybenzonitrile], which AUC(0-t) ([1]; mild hepatic impairment, read-out: AUC(0-24), Mean ± SD) is on record?
Answer: Its AUC(0-t) is 1150 ± 467 ng·h/mL.

Question: And the AUC(0-inf) ([1]; mild hepatic impairment)?
Answer: Its AUC(0-inf) is 1880 ± 926 ng·h/mL.

Question: What about the AUC(0-t) ([1]; mild hepatic impairment, read-out: AUC(0-t), Mean ± SD) of the same molecule?
Answer: The AUC(0-t) was 1820 ± 888 ng·h/mL.

Question: And the Cmax ([1]; mild hepatic impairment)?
Answer: Its Cmax is 133 ± 56.6 ng/mL.

Question: What about the MRT inf ([1]; mild hepatic impairment) of the same molecule?
Answer: The MRT inf was 28.3 h.

Question: What about the Vd/F ([1]; mild hepatic impairment) of the same molecule?
Answer: The Vd/F was 565 ± 348 L.

Question: What about the half-life ([1]; mild hepatic impairment) of the same molecule?
Answer: Its half-life is 29.5 ± 9.4 h.

Question: And the Tmax ([1]; mild hepatic impairment)?
Answer: Its Tmax is 1.63 h.

Question: What about the AUC(0-t) ([1]; moderate hepatic impairment, read-out: AUC(0-24), Mean ± SD) of the same molecule?
Answer: The AUC(0-t) was 1050 ± 729 ng·h/mL.

Question: What about the AUC(0-inf) ([1]; moderate hepatic impairment) of the same molecule?
Answer: The AUC(0-inf) was 1620 ± 1050 ng·h/mL.

Question: And the AUC(0-t) ([1]; moderate hepatic impairment, read-out: AUC(0-t), Mean ± SD)?
Answer: The AUC(0-t) was 1580 ± 1040 ng·h/mL.

Question: What about the Cmax ([1]; moderate hepatic impairment) of the same molecule?
Answer: The Cmax was 100 ± 74.6 ng/mL.

Question: And the MRT inf ([1]; moderate hepatic impairment)?
Answer: The MRT inf was 25.2 h.

Question: And the Vd/F ([1]; moderate hepatic impairment)?
Answer: Its Vd/F is 1050 ± 1110 L.

Question: What about the half-life ([1]; moderate hepatic impairment) of the same molecule?
Answer: Its half-life is 31.2 ± 7.93 h.

Question: What about the Tmax ([1]; moderate hepatic impairment) of the same molecule?
Answer: The Tmax was 2 h.

Question: And the AUC(0-t) ([1]; normal hepatic function, read-out: AUC(0-24), Mean ± SD)?
Answer: The AUC(0-t) was 1070 ± 545 ng·h/mL.

Question: What about the AUC(0-inf) ([1]; normal hepatic function) of the same molecule?
Answer: Its AUC(0-inf) is 1840 ± 947 ng·h/mL.

Question: What about the AUC(0-t) ([1]; normal hepatic function, read-out: AUC(0-t), Mean ± SD) of the same molecule?
Answer: The AUC(0-t) was 1780 ± 914 ng·h/mL.

Question: And the Cmax ([1]; normal hepatic function)?
Answer: The Cmax was 101 ± 53.7 ng/mL.

Question: And the MRT inf ([1]; normal hepatic function)?
Answer: Its MRT inf is 34.6 h.

Question: And the Vd/F ([1]; normal hepatic function)?
Answer: Its Vd/F is 660 ± 407 L.

Question: And the half-life ([1]; normal hepatic function)?
Answer: The half-life was 32.8 ± 6.92 h.

Question: What about the Tmax ([1]; normal hepatic function) of the same molecule?
Answer: The Tmax was 2 h.

Question: And the AUC(0-t) ([1]; severe hepatic impairment, read-out: AUC(0-24), Mean ± SD)?
Answer: Its AUC(0-t) is 1100 ± 704 ng·h/mL.

Question: And the AUC(0-inf) ([1]; severe hepatic impairment)?
Answer: Its AUC(0-inf) is 1740 ± 1230 ng·h/mL.

Question: What about the AUC(0-t) ([1]; severe hepatic impairment, read-out: AUC(0-t), Mean ± SD) of the same molecule?
Answer: The AUC(0-t) was 1680 ± 1190 ng·h/mL.

Question: What about the Cmax ([1]; severe hepatic impairment) of the same molecule?
Answer: Its Cmax is 110 ± 72.7 ng/mL.

Question: And the MRT inf ([1]; severe hepatic impairment)?
Answer: Its MRT inf is 29.2 h.

Question: And the Vd/F ([1]; severe hepatic impairment)?
Answer: Its Vd/F is 666 ± 479 L.

Question: And the half-life ([1]; severe hepatic impairment)?
Answer: Its half-life is 29.4 ± 8.38 h.

Question: What about the Tmax ([1]; severe hepatic impairment) of the same molecule?
Answer: Its Tmax is 3 h.

Question: And the “CL/F, Mean ± SD” value ([1]; mild hepatic impairment)?
Answer: Its value is 15.50 ± 13.496 L/h.

Question: What about the “Cmax higher relative to normal group” value ([1]; mild hepatic impairment) of the same molecule?
Answer: Its value is 35%.

Question: What about the “tlag, Median (min, max)” value ([1]; mild hepatic impairment) of the same molecule?
Answer: Its value is 0.00 (0.0, 0.3) h.

Question: What about the “AUC(0-inf) Geometric Mean Ratio (90% CI), sensitivity analysis” value (“AUC(0-inf) Geometric Mean Ratio (90% CI)” below) ([1]; mild vs normal) of the same molecule?
Answer: Its value is 0.94 (0.591, 1.504).

Question: And the “AUC(0-t) Geometric Mean Ratio (90% CI), sensitivity analysis” value (“AUC(0-t) Geometric Mean Ratio (90% CI)” below) ([1]; mild vs normal)?
Answer: Its value is 0.95 (0.591, 1.515).

Question: What about the “Cmax Geometric Mean Ratio (90% CI), sensitivity analysis” value (from here on “Cmax Geometric Mean Ratio (90% CI)”) ([1]; mild vs normal) of the same molecule?
Answer: Its value is 1.38 (0.871, 2.200).

Question: What about the “AUC0-t and AUC0-inf lower relative to normal group” value ([1]; moderate hepatic impairment) of the same molecule?
Answer: Its value is “approximately 25%”.

Question: What about the “CL/F, Mean ± SD” value ([1]; moderate hepatic impairment) of the same molecule?
Answer: Its value is 24.89 ± 25.914 L/h.

Question: And the “Cmax lower relative to normal group” value ([1]; moderate hepatic impairment)?
Answer: The value was 24%.

Question: What about the “mean CL/F higher compared to normal group” value ([1]; moderate hepatic impairment) of the same molecule?
Answer: The value was 1.8 fold.

Question: What about the “mean Vz/F higher compared to normal group” value ([1]; moderate hepatic impairment) of the same molecule?
Answer: Its value is 1.6 fold.

Question: What about the “tlag, Median (min, max)” value ([1]; moderate hepatic impairment) of the same molecule?
Answer: Its value is 0.13 (0.0, 0.5) h.

Question: What about the “AUC(0-inf) Geometric Mean Ratio (90% CI)” value ([1]; moderate vs normal) of the same molecule?
Answer: Its value is 0.72 (0.414, 1.251).

Question: What about the “AUC(0-t) Geometric Mean Ratio (90% CI)” value ([1]; moderate vs normal) of the same molecule?
Answer: The value was 0.71 (0.403, 1.254).

Question: And the “Cmax Geometric Mean Ratio (90% CI)” value ([1]; moderate vs normal)?
Answer: Its value is 0.74 (0.389, 1.412).

Question: And the “CL/F, Mean ± SD” value ([1]; normal hepatic function)?
Answer: Its value is 14.05 ± 7.521 L/h.

Question: What about the “tlag, Median (min, max)” value ([1]; normal hepatic function) of the same molecule?
Answer: The value was 0.00 (0.0, 0.3) h.

Question: What about the “time through which concentration was measurable in systemic circulation” value ([1]; postdose, all groups) of the same molecule?
Answer: Its value is 144 h.

Question: What about the “CL/F, Mean ± SD” value ([1]; severe hepatic impairment) of the same molecule?
Answer: The value was 15.92 ± 8.507 L/h.

Question: And the “tlag, Median (min, max)” value ([1]; severe hepatic impairment)?
Answer: Its value is 0.00 (0.0, 0.3) h.

Question: What about the “AUC(0-inf) Geometric Mean Ratio (90% CI)” value ([1]; severe vs normal) of the same molecule?
Answer: Its value is 0.94 (0.516, 1.702).

Question: And the “AUC(0-t) Geometric Mean Ratio (90% CI)” value ([1]; severe vs normal)?
Answer: Its value is 0.93 (0.512, 1.702).

Question: What about the “Cmax Geometric Mean Ratio (90% CI)” value ([1]; severe vs normal) of the same molecule?
Answer: Its value is 1.04 (0.586, 1.854).

Question: And the EC50 (plasma GH; Rattus norvegicus, po, read-out: plasma EC50 for GH suppression)?
Answer: The EC50 was 0.011 µg/mL (≈ 0.0241 µM).

Question: What about the “doses that significantly and dose dependently suppressed GH relative to vehicle” value (plasma GH; oral, acute, rGHRH challenge) of the same molecule?
Answer: Its value is ≥ 3 mg/kg.

Question: What about the AUC(0-t) ([2]; read-out: day-last mean plasma AUC0-24) of the same molecule?
Answer: The AUC(0-t) was 975 ng·h/mL.

Question: What about the Cmax ([2]; read-out: day-last mean plasma Cmax) of the same molecule?
Answer: The Cmax was 127 ng/mL.

Question: What about the “selectivity over other human somatostatin receptors” value [3] of the same molecule?
Answer: The value was > 4000 fold.

Question: What about the “CYP enzymes catalyzing oxidative metabolism” value [4] of the same molecule?
Answer: Its value is “CYP3A4/5 catalyzes the oxidative metabolism of paltusotine with minor contribution of CYP2D6”.

Question: And the “contribution of CYP-mediated metabolism” value ([4]; in vitro studies)?
Answer: The value was ~16.8%.

Question: And the AUC dose dependence [5]?
Answer: Its AUC dose dependence is “increased dose-dependently”.

Question: What about the “oral doses with sustained suppression of IGF-1” value (IGF-1) of the same molecule?
Answer: Its value is ≥ 6 mg/kg/day.

Question: What about the EC50 [6] of the same molecule?
Answer: Its EC50 is 0.25 nM.
